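The compound was tested at five concentrations on cells cultured in 96-well plates, with a 48-hour exposure period. GI50 = concentration required for 50% inhibition of growth.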 Active and inactive are the calls of the source. No stated cut-off is given here; in the data, active = GI50 up to about 1.1 µM and inactive = higher.
Columns and labels:
Assay in all cases: NCI-60 cell line screen, 48 h
SF-539 = test system: SF-539
SK-OV-3 = test system: SK-OV-3
SNB-75 = test system: SNB-75
IGROV-1 = test system: IGROV-1
LOX IMVI = test system: LOX IMVI
HL-60 = test system: HL-60
EKVX = test system: EKVX
SW-620 = test system: SW-620
DMS-114 = test system: DMS-114
CAKI-1 = test system: CAKI-1
ACHN = test system: ACHN
SNB-78 = test system: SNB-78
A498 = test system: A498
UACC-257 = test system: UACC-257
SK-MEL-28 = test system: SK-MEL-28
OVCAR-5 = test system: OVCAR-5
OVCAR-3 = test system: OVCAR-3
786-0 = test system: 786-0
Malme-3M = test system: Malme-3M
DLD-1 = test system: DLD-1
DMS-273 = test system: DMS-273
OVCAR-4 = test system: OVCAR-4
SF-295 = test system: SF-295
SK-MEL-2 = test system: SK-MEL-2
KM12 = test system: KM12
HCT-116 = test system: HCT-116
OVCAR-8 = test system: OVCAR-8
HCC 2998 = test system: HCC 2998
A549 = test system: A549
SNB-19 = test system: SNB-19
K562 = test system: K562
TK-10 = test system: TK-10
COLO 205 = test system: COLO 205
SN12C = test system: SN12C
RPMI-8226 = test system: RPMI-8226
SF-268 = test system: SF-268
UO-31 = test system: UO-31
MOLT-4 = test system: MOLT-4
HOP-92 = test system: HOP-92
NCI-H460 = test system: NCI-H460
NCI-H226 = test system: NCI-H226
RXF 393 = test system: RXF 393
HOP-62 = test system: HOP-62
HCT-15 = test system: HCT-15
HT-29 = test system: HT-29
KM-20L2 = test system: KM-20L2
SK-MEL-5 = test system: SK-MEL-5
U-251 = test system: U-251
M19-MEL = test system: M19-MEL
SR = test system: SR
RXF 631 = test system: RXF 631
NCI-H23 = test system: NCI-H23
UACC-62 = test system: UACC-62
CCRF-CEM = test system: CCRF-CEM
M14 = test system: M14
NCI-H522 = test system: NCI-H522
LXFL 529 = test system: LXFL 529

## O=C(O)c1ccc(O)c(/N=N/c2cc(S(=O)(=O)O)c3ccccc3c2O)c1
SF-539
  GI50: > 10 µM (inactive)
SK-OV-3
  GI50: > 10 µM (inactive)
SNB-75
  GI50: > 100 µM (inactive)
IGROV-1
  GI50: 45.1 µM (inactive)
LOX IMVI
  GI50: > 100 µM (inactive)
HL-60
  GI50: > 100 µM (inactive)
EKVX
  GI50: 23.3 µM (inactive)
SW-620
  GI50: > 100 µM (inactive)
DMS-114
  GI50: 82.6 µM (inactive)
CAKI-1
  GI50: 54.3 µM (inactive)
ACHN
  GI50: > 100 µM (inactive)
SNB-78
  GI50: > 100 µM (inactive)
A498
  GI50: > 100 µM (inactive)
UACC-257
  GI50: > 10 µM (inactive)
SK-MEL-28
  GI50: > 100 µM (inactive)
OVCAR-5
  GI50: > 100 µM (inactive)
OVCAR-3
  GI50: 92.3 µM (inactive)
786-0
  GI50: > 100 µM (inactive)
Malme-3M
  GI50: > 100 µM (inactive)
DLD-1
  GI50: > 100 µM (inactive)
DMS-273
  GI50: > 100 µM (inactive)
OVCAR-4
  GI50: > 100 µM (inactive)
SF-295
  GI50: > 10 µM (inactive)
SK-MEL-2
  GI50: > 10 µM (inactive)
KM12
  GI50: > 100 µM (inactive)
HCT-116
  GI50: 20 µM (inactive)
OVCAR-8
  GI50: > 100 µM (inactive)
HCC 2998
  GI50: > 100 µM (inactive)
A549
  GI50: > 100 µM (inactive)
SNB-19
  GI50: > 100 µM (inactive)
K562
  GI50: > 100 µM (inactive)
TK-10
  GI50: > 100 µM (inactive)
COLO 205
  GI50: 39.8 µM (inactive)
SN12C
  GI50: > 100 µM (inactive)
RPMI-8226
  GI50: > 100 µM (inactive)
SF-268
  GI50: > 10 µM (inactive)
UO-31
  GI50: > 100 µM (inactive)
MOLT-4
  GI50: > 100 µM (inactive)
HOP-92
  GI50: > 100 µM (inactive)
NCI-H460
  GI50: 37.2 µM (inactive)
NCI-H226
  GI50: > 100 µM (inactive)
RXF 393
  GI50: > 100 µM (inactive)
HOP-62
  GI50: 19.6 µM (inactive)
HCT-15
  GI50: > 10 µM
HT-29
  GI50: 50.7 µM (inactive)
KM-20L2
  GI50: > 100 µM (inactive)
SK-MEL-5
  GI50: > 100 µM (inactive)
U-251
  GI50: > 100 µM (inactive)
M19-MEL
  GI50: 55.6 µM (inactive)
SR
  GI50: > 100 µM (inactive)
RXF 631
  GI50: > 100 µM (inactive)
NCI-H23
  GI50: > 100 µM (inactive)

## COC(=O)CN(C)P(=O)(N1CC1)N1CC1
SF-539
  GI50: > 100 µM (inactive)
SK-OV-3
  GI50: > 100 µM (inactive)
SNB-75
  GI50: > 100 µM (inactive)
IGROV-1
  GI50: > 100 µM (inactive)
LOX IMVI
  GI50: 76 µM (inactive)
HL-60
  GI50: 26.9 µM (inactive)
UACC-62
  GI50: 90.2 µM (inactive)
EKVX
  GI50: > 100 µM (inactive)
SW-620
  GI50: > 100 µM (inactive)
CCRF-CEM
  GI50: 36.9 µM (inactive)
DMS-114
  GI50: 55.1 µM (inactive)
CAKI-1
  GI50: > 100 µM (inactive)
ACHN
  GI50: 71.4 µM (inactive)
SNB-78
  GI50: > 100 µM (inactive)
UACC-257
  GI50: > 100 µM (inactive)
SK-MEL-28
  GI50: > 100 µM (inactive)
M14
  GI50: > 100 µM (inactive)
OVCAR-5
  GI50: > 100 µM (inactive)
Malme-3M
  GI50: > 100 µM (inactive)
DLD-1
  GI50: > 100 µM (inactive)
NCI-H522
  GI50: > 100 µM (inactive)
DMS-273
  GI50: > 100 µM (inactive)
OVCAR-4
  GI50: > 100 µM (inactive)
SF-295
  GI50: 90.2 µM (inactive)
SK-MEL-2
  GI50: > 100 µM (inactive)
KM12
  GI50: > 100 µM (inactive)
OVCAR-8
  GI50: > 100 µM (inactive)
HCC 2998
  GI50: > 100 µM (inactive)
A549
  GI50: > 100 µM (inactive)
SNB-19
  GI50: > 100 µM (inactive)
K562
  GI50: > 100 µM (inactive)
TK-10
  GI50: > 100 µM (inactive)
COLO 205
  GI50: > 100 µM (inactive)
SN12C
  GI50: 69.5 µM (inactive)
RPMI-8226
  GI50: > 100 µM (inactive)
SF-268
  GI50: 89.7 µM (inactive)
UO-31
  GI50: > 100 µM (inactive)
MOLT-4
  GI50: 33 µM (inactive)
RXF 393
  GI50: > 100 µM (inactive)
HCT-15
  GI50: > 100 µM
HT-29
  GI50: > 100 µM (inactive)
LXFL 529
  GI50: > 100 µM (inactive)
KM-20L2
  GI50: > 100 µM (inactive)
SK-MEL-5
  GI50: > 100 µM (inactive)
U-251
  GI50: > 100 µM (inactive)
RXF 631
  GI50: > 100 µM (inactive)
NCI-H23
  GI50: 83.4 µM (inactive)

From ChEMBL document CHEMBL1201862, “PubChem BioAssay data set” (2004)
